The test system of series [1] is human HT (diffuse large B cell) non-Hodgkin's lymphoma xenografts. As to the kind of experiment: Subcutaneous lymphoma xenograft treatment. The class given is in vivo. The source says: (§1) In order to study the effects of PDX on lymphoma growth in vivo, subcutaneous transplantation models in NOD/SCID mice were generated using three established human lymphoma cell line representative of aggressive transformed FL (RL) and de novo extranodal DLBCL (HT; SKI-DLCL-1) histologies. Six to eight week old non-obsese diabetic severe combined immunodeficient (NOD/SCID) mice (Jackson Laboratories, Bar Harbor, Me.) were sub-lethally irradiated with […] from a gamma source and inoculated with 10×10^6 lymphoma cells via a subcutaneous route. When tumor volumes approached 100 mm^3, mice were divided into three groups, averaging 3-8 mice per group. Mice were treated with normal saline or the maximum tolerated dose (MTD) of MTX (40 mg/kg) or PDX (60 mg/kg) via an intraperitoneal route twice weekly for two weeks (four total doses). […] (Sirotnak, et al., Cancer Chemother. Pharmacol. 12: 26-30 (1984); Sirotnak et al., Cancer Chemother. Pharmacol. 42: 313-318 (1998).
(§2) Engraftment rates in this experiment ranged from 80 to 90%. Palpable tumors formed under the skin approximately 7-10 days after inoculation and were readily measurable with calipers. Mice with subcutaneous lymphoma growths survived an average of 40-50 days after inoculation.

For series [2], the system named is human RL (transformed follicular) non-Hodgkin's lymphoma xenografts. As to the kind of experiment: Subcutaneous lymphoma xenograft treatment. The class given is in vivo. The following applies: MTX 40 mg/kg.
From the text: as §1, §2

In series [3] the test system is human SKI-DLCL-1 (de novo diffuse large B cell) non-Hodgkin's lymphoma xenografts. As to the kind of experiment: Subcutaneous lymphoma xenograft treatment. It counts as in vivo. The following applies: MTX 40 mg/kg.
From the text: as §1, §2

For series [4], the system named is subcutaneous tumors of SKI. Kind of series: Preliminary combination xenograft experiment. The conditions noted are these: 60 mg/kg; regrowth by day 44 after initial response. The class given is in vivo, irradiated NOD-SCID mice. Here is the method: Given the experience that SKI-DLCL-1 is the most PDX resistant line in the panel, it was selected for these in vivo synergy experiments. […] All animals were treated with the maximum tolerated dose (MTD) of each drug, save the combination studies.

Another series has as its system SKI-DLBCL-1 xenografts. As to the kind of experiment: TUNEL immunohistochemical staining for apoptosis in xenografts. The conditions noted are these: day 21; four doses on days 0, 3, 7 and 10; MTX 40 mg/kg, PDX 60 mg/kg. The class given is in vivo, mice. On the procedure:
Immunohistochemical staining for apoptosis as measured by terminal deoxynucleotide transferase-mediated nick end-labeling (TUNEL) was performed on SKI-DLBCL-1 xenografts from mice sacrificed at day 21 following initiation of antifolate therapy. Mice received four doses of saline, MTX (40 mg/kg) or PDX (60 mg/kg) on days 0, 3, 7 and 10.

Where [5] appears, read: MTX 40 mg/kg, PDX 60 mg/kg ip twice weekly for two weeks.
[6] abbreviates: PDX 60 mg/kg ip twice weekly for two weeks.

Structures are written as SMILES. Values joined by “and” are separate entries in the source; they are usually repeats but may differ in a detail not shown here. Equal entries are not always repeated.

On to `C#CCC(Cc1cnc2nc(N)nc(N)c2n1)c1ccc(C(=O)N[C@@H](CCC(=O)O)C(=O)O)cc1` (stereo partly drawn) [PDX, 10-Propargyl-10-deazaminopterin], for which, in series [1] (MTX 40 mg/kg, PDX 60 mg/kg), the “Complete Regression (no/total)” value is 8 of 9 and 8/9; the “complete tumor regression (% of mice)” value stood at 89%. For the same compound, in series [1] (setting [5]), the “Avg change in Tumor Volume (mm^3 ± SE)” value is recorded as −95 ± 0.8 mm^3 and the “Weight Change (%)” value is −8.9%. For the same compound, the “Avg Tumor Diameter (mm ± SE)” value in series [1] (MTX 40 mg/kg, PDX 60 mg/kg, at the nadir of tumor regression) is 0.5 mm and 0.5 ± 0.3 mm. Further, the “Tumor Regression (%)” value in series [1] (PDX 60 mg/kg, average tumor regression) was 99%. Moreover, in series [2] (PDX 60 mg/kg), the “Complete Regression (no/total)” value was 5 of 9 and 5/9; the “tumor regressions (% of mice)” value worked out at 57%. In series [2] (setting [6]), the “Avg Tumor Diameter (mm ± SE)” value was 2.7 ± 1.1 mm, the “Avg change in Tumor Volume (mm^3 ± SE)” value is on record as −46 ± 34 mm^3 and the “Weight Change (%)” value is −11.1%. In series [3] (PDX 60 mg/kg), the “Complete Regression (no/total)” value is 3 of 10 and 3/10; the “tumor regressions / complete remissions (% of mice)” value was found to be 30%. Moreover, in series [3] (setting [6]), the “Avg Tumor Diameter (mm ± SE)” value was found to be 3.5 ± 0.7 mm, the “Avg change in Tumor Volume (mm^3 ± SE)” value was −81 ± 16 mm^3 and the “Weight Change (%)” value is recorded as −1.2%. In series [4], the “tumor volume as % of initial tumor volume” value amounted to 739%. Also, in the series on SKI-DLBCL-1 xenografts, the “apoptotic cells in tumor tissue (TUNEL)” value was “high level of apoptotic cells”.
